# What was measured:
# Assay type in all cases: in vivo
# [1] = test system: DIO mice (C57Bl/6J male mice); test: Insulin resistance (HOMA-IR), 36 days assay in DIO mice; conditions: 50 mg/kg orally twice daily for 36 days, days 1, 8, 15, 22, 29 and 36, vs saline control, similar to metformin 150 mg/kg
# Description: To assess the performance of the compounds disclosed in decreasing insulin resistance, DIO mice (C57Bl/6J male mice) were treated with hydrochloride salts of compounds 4a, 5a; and with compound 7a during 36 days, versus a control treated with saline (0.9% NaCl) and versus DIO mice treated with metformin as a positive control.
# (§1) For the assessment, 60 C57Bl/6 J male mice (16-week-old at delivery and 40 g of average weight), obtained from Charles River France put on high fat diet for 10 weeks. The animals were housed in ventilated and enriched housing cages (310×125×127 mm^3) throughout the experimental phase. Animals' cages litters were changed at least once a week. Mice were housed in groups of 10 mice on a normal 12 hours light cycle (at 08:00 pm lights were switched off), at 22±2° C. and 50±10% relative humidity. After reception, mice were maintained for three additional acclimation weeks. During the whole test (acclimation+treatment phase) a high fat diet (D12492 purchased from Research Diet Inc.; 60% fat) and tap water were provided ad libitum.
# After the acclimation period, mice were fasted for 6 hours and blood glucose and plasma insulin were measured. Ten animals, those with lower blood glucose/plasma insulin, were discarded from the study. […]
# Body weight were weekly measured as well as blood glucose and plasma insulin after a 6 hour-fasting.
# Blood glucose was measured by sampling blood from the tip of the tail: a drop of blood is collected and placed on a glucometer strip (Accu-Check® glucometer, Roche, Switzerland). Plasma insulin was detected via ELISA (Elisa Kit, Eurobio, France) using 5 μl samples.
# The Homeostatic model assessment-insulin resistance index (HOMA-IR), which is used to quantify insulin resistance, was calculated from fasting blood glucose, and plasma insulin values as follows: HOMA-IR=(mM glucose×μU/mL insulin)/22.5, being this constant a normalizing factor (Matthews et al., 1985, Diabetologia 28(7), 412-9).
# [2] = test system: DIO mice (C57Bl/6 J male mice); test: Liver lipid content, 36 days assay in DIO mice (colorimetric kits); conditions: 50 mg/kg orally twice daily, after 36 days, vs saline control
# Description: To assess the performance of the compounds disclosed in decreasing hepatic lipid content, DIO mice (C57Bl/6 J male mice) were treated with a hydrochloride salt of compound 4a; and with compound 7a during 36 days, versus a control of DIO mice treated with saline (0.9% NaCl) and versus DIO mice treated with Metformin as a positive control.
# as §1, with “France, were” for “France”, “assessment” for “test”, “Inc;” for “Inc.;”
# After the acclimation period, mice were fasted for 6 hours and blood glucose and plasma insulin were measured. Ten animals, those with lower blood glucose/plasma insulin, were discarded from the study. Then, the others were randomized into 5 homogenous groups (n=10 mice per group) according to their blood glucose/plasma insulin levels (HOMA-IR) and body weight. Mice were treated orally twice daily for 36 days with either saline solution (control group), SJT test compound (4a, 7a; 50 mg/kg) or metformin (150 mg/kg).
# Finally, mice were sacrificed, and liver was collected, weighted and stored at −80° C. for additional analysis. Liver samples were dissected for liver lipids assay. Liver lipids were assayed using colorimetric commercial assay kits, from liver samples homogenate after lipid solubilization in deoxycholate as described by Miao et al., J Lipid Res, 2004, 45, 1410-17. Samples were homogenized with an ultrasound probe with 500 μl distilled water during few seconds. Then cholic acid at 1% is added to make lipids soluble. The measurement of the different lipids was then performed using colorimetric kits from Sobioda, France.
# [3] = test system: DIO-NASH mice (C57Bl/6J male mice); test: Differential gene expression analysis by RNAseq in liver of DIO-NASH mice
# Description: The effect of the compounds of the invention in the development of liver fibrosis was also studied by differential gene expression analysis by RNAseq where DIO-NASH mice (C57Bl/6J male mice) were treated with a hydrochloride salt of compound 4a during 8 weeks (50 mg/kg, p.o., b.i.d.), versus a pathological control of DIO-NASH mice and a non-pathological control LEAN-CHOW mice, both treated with the vehicle (0.9% NaCl).
# The animals were kept and examined under the same conditions were used as in example 2.2. The liver biopsies were also carried out under the same conditions as in example 2.2. The DIO-NASH mice group were put on high fat diet (40% AMLN diet, D09100301 Research Diets, USA) and a control group (LEAN-CHOW) was put on a regular chow diet (Altromin 1324, Brogaarden, Denmark) for 35 weeks prior to the study.
# FIGS. 12 and 13 show the effect of treatment of DIO-NASH mice with a hydrochloride salt of compound 4a versus a control DIO-NASH mice group treated with vehicle and a LEAN-CHOW […] control group also treated with vehicle, in the expression of collagen genes which are fibrosis markers: collagen type I-alpha 1 (COL1A1) and alpha 2 (COL1A2), collagen type III alpha 1 (COL3A1), collagen V alpha 1 (COL5A1), alpha 2 (COL5A2) and alpha 3 (COL5A3), collagen type VI alpha 1 (COL6A1), alpha 2 (COL6A2) and alpha 3 (COL6A3).
# Results are given as expression level in RPKM for each mice group, wherein RPKM (Reads per kilo base per million mapped reads) is a method of quantifying gene expression from RNA sequencing data by normalizing for […] and the number of sequencing reads.
# Date expressed as mean±s.e.m. values from 6 animals. ***P<0.001 vs. NASH vehicle.
compound,measurement,setting,value
"COc1ccc(-c2nc(C(=O)NCCN)cc3c2[nH]c2ccccc23)cc1 [Compound 4a, N(-ethylamine)-1-benzosubstituted-β-carboline-3-carboxamide]",insulin resistance (HOMA-IR),[1],lower insulin resistance compared to the control animals
same,hepatic cholesterol,[2],lower lipid levels than untreated control animals
same,hepatic fatty acids,[2],lower lipid levels than untreated control animals
same,hepatic triglycerides,[2],lower lipid levels than untreated control animals
same,expression of CD36 (lipid metabolism),"[3]; 50 mg p.o., b.i.d, 8 weeks",decreased expression
same,expression of Casp7 and IL18 (hepatocellular cell death),"[3]; 50 mg p.o., b.i.d, 8 weeks",increased expression
same,expression of GLUT4 (insulin signaling),"[3]; 50 mg p.o., b.i.d, 8 weeks",increased expression
same,expression of MAPK and AKT (insulin signaling),"[3]; 50 mg p.o., b.i.d, 8 weeks",decreased expression
same,expression of SQLE (lipid metabolism),"[3]; 50 mg p.o., b.i.d, 8 weeks",increased expression
same,"fibrosis genes related to stellate cell activation, such as Col1a1, Col3a1 and TIMP1","[3]; 50 mg p.o., b.i.d, 8 weeks",reduction
same,"inflammation markers related to monocyte recruitment, such as CD68, CCR2, MAC-2","[3]; 50 mg p.o., b.i.d, 8 weeks",reduction
same,"TLR4, TGFB and TGFBR gene expression (inflammation signaling)","[3]; 50 mg/kg, p.o., b.i.d., 8 weeks",reduction
same,"expression of collagen genes (COL1A1, COL1A2, COL3A1, COL5A1, COL5A2, COL5A3, COL6A1, COL6A2, COL6A3)","[3]; 50 mg/kg, p.o., b.i.d., 8 weeks, vs DIO-NASH vehicle, P<0.001",significantly reduced the expression of the collagen genes
same,number of genes regulated,"[3]; 8 weeks treatment, RNAseq",more than 2000 genes
